Results as given in publication PMC6325200, “Effects of Microplate Type and Broth Additives on Microdilution MIC Susceptibility Assays” (Antimicrobial Agents and Chemotherapy, 2018).
Converted amounts (≈) assume the structure as drawn.

Legend:
K. pneumoniae ATCC 13883 = test: microbe, parasite or virus in culture; conditions: Klebsiella pneumoniae, n = 2
Method in brief: (§1)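 Broth microdilution: 2-fold serial dilutions of test compounds plus reference antibiotics; inoculum = culture diluted 40x in MH broth ±Tween, 37°C, 2–3 h. Controls per plate: bacteria alone (positive), medium alone (negative).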

P. aeruginosa ATCC 10145 = test: microbe, parasite or virus in culture; conditions: Pseudomonas aeruginosa, n = 2
Method in brief: as §1

A. baumannii ATCC 19606 = test: microbe, parasite or virus in culture; conditions: Acinetobacter baumannii, n = 2
Method in brief: as §1

E. coli = conditions: literature value; cited from earlier work
E. coli ATCC 25922 = test: microbe, parasite or virus in culture; conditions: n = 2
Method in brief: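 Broth microdilution with 2-fold serial compound dilutions in MH broth, using cultures diluted 40-fold and grown at 37°C for 2 to 3 h, with or without Tween. Variants included 2% beractant added to mid-log cultures, or 50% human serum in MHB.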

With CC1(C)S[C@@H]2[C@H](NC(=O)Cc3ccccc3)C(=O)N2[C@H]1C(=O)O [Penicillin G, penicillin G] the MIC (K. pneumoniae ATCC 13883; ATCC13883, Corning NBS, MHB +T80) was over 64 µg/mL, the MIC (K. pneumoniae ATCC 13883; ATCC13883, Corning NBS, MHB -T80) was over 64 µg/mL and the MIC (K. pneumoniae ATCC 13883; ATCC13883, Corning PS, MHB +T80) was over 64 µg/mL. For the same compound, the MIC (K. pneumoniae ATCC 13883; ATCC13883, Corning PS, MHB -T80) was over 64 µg/mL, the MIC (K. pneumoniae ATCC 13883; ATCC13883, Corning TC, MHB +T80) was over 64 µg/mL and the MIC (K. pneumoniae ATCC 13883; ATCC13883, Corning TC, MHB -T80) was over 64 µg/mL. For the same compound, the MIC (P. aeruginosa ATCC 10145; ATCC10145, Corning NBS, MHB +T80) was over 64 µg/mL, the MIC (P. aeruginosa ATCC 10145; ATCC10145, Corning NBS, MHB -T80) was over 64 µg/mL and the MIC (P. aeruginosa ATCC 10145; ATCC10145, Corning PS, MHB +T80) was over 64 µg/mL. It also gave an MIC (P. aeruginosa ATCC 10145; ATCC10145, Corning PS, MHB -T80) of over 64 µg/mL, an MIC (P. aeruginosa ATCC 10145; ATCC10145, Corning TC, MHB +T80) of over 64 µg/mL and an MIC (P. aeruginosa ATCC 10145; ATCC10145, Corning TC, MHB -T80) of over 64 µg/mL. It also gave an MIC (A. baumannii ATCC 19606; ATCC19606, Corning NBS, MHB +T80) of over 64 µg/mL, an MIC (A. baumannii ATCC 19606; ATCC19606, Corning NBS, MHB -T80) of over 64 µg/mL and an MIC (A. baumannii ATCC 19606; ATCC19606, Corning PS, MHB +T80) of over 64 µg/mL. It also gave an MIC (A. baumannii ATCC 19606; ATCC19606, Corning PS, MHB -T80) of over 64 µg/mL, an MIC (A. baumannii ATCC 19606; ATCC19606, Corning TC, MHB +T80) of over 64 µg/mL and an MIC (A. baumannii ATCC 19606; ATCC19606, Corning TC, MHB -T80) of over 64 µg/mL. For the same compound, the “MIC (literature)” value (E. coli) was 16–64 ([71]) µg/ml, the MIC (E. coli ATCC 25922; Corning PS plate, MHB −T80, no additive) was 32 to 64 µg/mL and the MIC (E. coli ATCC 25922; Escherichia coli, ATCC25922, 24 h, Corning NBS, MH + 2% LHB, 2% LS) was 32 to 64 µg/mL. It also gave an MIC (E. coli ATCC 25922; Escherichia coli, ATCC25922, 24 h, Corning NBS, MH + 2% LHB, 50% HS) of 32 to 64 µg/mL, an MIC (E. coli ATCC 25922; Escherichia coli, ATCC25922, 24 h, Corning NBS, MH + 2% LHB, no additive) of 32 to 64 µg/mL and an MIC (E. coli ATCC 25922; Escherichia coli, ATCC25922, 24 h, Corning NBS, MH + T80, 2% LS) of 32 µg/mL. For the same compound, the MIC (E. coli ATCC 25922; Escherichia coli, ATCC25922, 24 h, Corning NBS, MH + T80, 50% HS) was 32 to 64 µg/mL, the MIC (E. coli ATCC 25922; Escherichia coli, ATCC25922, 24 h, Corning PS, MH + 2% LHB, 2% LS) was 32 to 64 µg/mL and the MIC (E. coli ATCC 25922; Escherichia coli, ATCC25922, 24 h, Corning PS, MH + 2% LHB, no additive) was 64 µg/mL. For the same compound, the MIC (E. coli ATCC 25922; Escherichia coli, ATCC25922, 24 h, Corning PS, MH + T80, 2% LS) was 32 to 64 µg/mL, the MIC (E. coli ATCC 25922; Escherichia coli, ATCC25922, 24 h, Corning PS, MH + T80, 50% HS) was 64 µg/mL and the MIC (E. coli ATCC 25922; Escherichia coli, ATCC25922, 24 h, Corning TC, MH + 2% LHB, 2% LS) was 32 to 64 µg/mL. The MIC (E. coli ATCC 25922; Escherichia coli, ATCC25922, 24 h, Corning TC, MH + 2% LHB, 50% HS) was 32 to 64 µg/mL, the MIC (E. coli ATCC 25922; Escherichia coli, ATCC25922, 24 h, Corning TC, MH + 2% LHB, no additive) was 64 µg/mL and the MIC (E. coli ATCC 25922; Escherichia coli, ATCC25922, 24 h, Corning TC, MH + T80, 2% LS) was 32 to 64 µg/mL. The MIC (E. coli ATCC 25922; Escherichia coli, ATCC25922, 24 h, Corning TC, MH + T80, 50% HS) was 64 µg/mL, the MIC (E. coli ATCC 25922; Escherichia coli, ATCC25922, 24 h, Trek PS, MH + 2% LHB, 2% LS) was 32 µg/mL and the MIC (E. coli ATCC 25922; Escherichia coli, ATCC25922, 24 h, Trek PS, MH + 2% LHB, 50% HS) was 32 µg/mL. The MIC (E. coli ATCC 25922; Escherichia coli, ATCC25922, 24 h, Trek PS, MH + 2% LHB, no additive) was 32 µg/mL, the MIC (E. coli ATCC 25922; Escherichia coli, ATCC25922, 24 h, Trek PS, MH + T80, 2% LS) was 32 µg/mL and the MIC (E. coli ATCC 25922; Escherichia coli, ATCC25922, 24 h, Trek PS, MH + T80, 50% HS) was 32 µg/mL. The MIC (E. coli ATCC 25922; Escherichia coli, ATCC25922, Corning NBS plate, MHB +0.002% T80, no further additive) was 64 µg/mL (≈ 191 µM), the MIC (E. coli ATCC 25922; Escherichia coli, ATCC25922, Corning NBS plate, MHB −T80, no additive) was 64 µg/mL (≈ 191 µM) and the MIC (E. coli ATCC 25922; Escherichia coli, ATCC25922, Corning NBS, MH, 2% LS) was 64 µg/mL (≈ 191 µM). For the same compound, the MIC (E. coli ATCC 25922; Escherichia coli, ATCC25922, Corning NBS, MH, 50% HS) was 64 µg/mL (≈ 191 µM), the MIC (E. coli ATCC 25922; Escherichia coli, ATCC25922, Corning PS plate, MHB +0.002% T80, no further additive) was 64 µg/mL (≈ 191 µM) and the MIC (E. coli ATCC 25922; Escherichia coli, ATCC25922, Corning PS plate, MHB −T80, no additive) was 32 to 64 µg/mL (≈ 95.7 to 191 µM). The MIC (E. coli ATCC 25922; Escherichia coli, ATCC25922, Corning PS, MH, 50% HS) was 64 µg/mL (≈ 191 µM), the MIC (E. coli ATCC 25922; Escherichia coli, ATCC25922, Corning TC plate, MHB +0.002% T80, no further additive) was 64 µg/mL (≈ 191 µM) and the MIC (E. coli ATCC 25922; Escherichia coli, ATCC25922, Corning TC plate, MHB −T80, no additive) was 32 µg/mL (≈ 95.7 µM). For the same compound, the MIC (E. coli ATCC 25922; Escherichia coli, ATCC25922, Corning TC, MH, 2% LS) was 64 µg/mL (≈ 191 µM), the MIC (E. coli ATCC 25922; Escherichia coli, ATCC25922, Corning TC, MH, 50% HS) was 64 µg/mL (≈ 191 µM) and the MIC (E. coli ATCC 25922; Escherichia coli, ATCC25922, Nunc PS plate, MHB +0.002% T80) was 64 µg/mL (≈ 191 µM). The MIC (E. coli ATCC 25922; Escherichia coli, ATCC25922, Nunc PS plate, MHB −T80) was 32 µg/mL (≈ 95.7 µM), the MIC (E. coli ATCC 25922; Escherichia coli, ATCC25922, Nunc U TC plate, MHB +0.002% T80) was 64 µg/mL (≈ 191 µM) and the MIC (E. coli ATCC 25922; Escherichia coli, ATCC25922, Nunc U TC plate, MHB −T80) was 32 µg/mL (≈ 95.7 µM). The MIC (E. coli ATCC 25922; Escherichia coli, ATCC25922, Nunc flat TC plate, MHB +0.002% T80) was 64 µg/mL (≈ 191 µM), the MIC (E. coli ATCC 25922; Escherichia coli, ATCC25922, Nunc flat TC plate, MHB −T80) was 32 to 64 µg/mL (≈ 95.7 to 191 µM) and the MIC (E. coli ATCC 25922; Escherichia coli, ATCC25922, Trek PS plate, MHB +0.002% T80, no further additive) was 32 to 64 µg/mL (≈ 95.7 to 191 µM). The MIC (E. coli ATCC 25922; Escherichia coli, ATCC25922, Trek PS plate, MHB −T80, no additive) was 64 µg/mL (≈ 191 µM), the MIC (E. coli ATCC 25922; Escherichia coli, ATCC25922, Trek PS, MH, 2% LS) was 64 µg/mL (≈ 191 µM) and the MIC (E. coli ATCC 25922; Trek PS plate, MHB +0.002% T80, no further additive) was 32 to 64 µg/mL.
